According to patent publication US7612208B2, “Crystalline form of the salt of 4-(3-chloro-4-(cyclopropylaminocarbonyl)aminophenoxy)-7-methoxy-6-quinolinecarboxamide or the solvate of the salt and a process for preparing the same” (Eisai R&D Management Co., Ltd., priority 2003, dated 2009):

Columns and labels:
[1] = Evaluation of hygroscopicity (storage 1 week; water content, powder X-ray diffraction); assay type: physicochemical; conditions: for change in appearance and crystal transition / change of water content / hygroscopicity: 25° C., relative humidity 75% or 93%; for crystal form: powder X-ray diffraction
Method: The hygroscopicity and solid stability of a crystalline form of the mesylate of the carboxamide (Form A) (obtained in Example 5), a crystalline form of the mesylate of the carboxamide (Form C) (obtained in Example 7), a crystalline form of the acetic acid solvate of the mesylate of the carboxamide (Form I) (obtained in Example 10) and a crystalline form of the esylate of the carboxamide (Form β) (obtained in Example 12) were measured under the following conditions.
1. Storage Conditions for the Hygroscopicity Test (Period: 1 Week)
a-1. 25° C., relative humidity 75%
b-1. 25° C., relative humidity 93%
Analysis was carried out according to “X-Ray Powder Diffraction Method” described in Japanese Pharmacopoeia 14th Edition, General Tests (B-614 to 619) under the following measurement conditions. • Apparatus: RINT-2000 (manufacture by Rigaku Denki K. K.) • X-ray: CuKα ray • Monochrometer: curved crystal monochrometer • Goniometer: vertical goniometer • Counter: scintillation counter • Applied voltage: 40 kV • Charging current: 200 mA • Scan speed: 5°/min • Scan axis: 2θ/θ • Scan range; 2θ+5° to 40° • Divergent slit: 0.5° • Scattering slit: 0.5° • Receiving slit: 0.3 mm 5. Measurement of Water Content
Measurement was carried out according to the Water Determination as described in Japanese Pharmacopoeia 14th Edition, General Tests (B-318 to 331) using 6 to 10 mg of each crystal.

[2] = Evaluation of solid stability (storage 2 weeks; total impurity by HPLC, water content, powder X-ray diffraction); assay type: physicochemical; conditions: for changes in water content and appearance, crystal transition: all storage conditions
Method: 2. Storage Conditions for the Solid Stability Test (Period: 2 Weeks) a-2. −20° C. (well closed) b-2. 25° C., light irradiation (1000 1×; shading with aluminum foil, well closed) c-2. 25° C., light irradiation (1000 1×; well closed) […]
e-2. 60° C. (well closed except the following case: slightly open in the case of a crystalline form of the acetic acid solvate of the mesylate (Form I))
3. Method for Measuring the Impurity Amount by HPLC
After storage, the sample solution was prepared by adding a mixed solvent of water and methanol (3:1) to each crystal at 0.1 mg/mL as final concentration.
Tests were conducted by the HPLC method for these sample solutions under the measurement conditions described below, and the eluted peak areas were measured to determine the total impurity amount by the relative area method (impurities of 0.05% or more were counted).
(Formula for Calculating Total Impurity Amount)
• Individual impurity amount (%)=(the peak area for the individual impurity)×100/{(the peak area for carboxamide)+(sum of the peak areas for impurities)} • Total impurity amount (%)=sum of individual impurity amounts (HPLC Measurement Conditions) • Column: Mightysil RP-18 GP (Kanto Kagaku; inner diameter 4.6 mm, column length 150 mm, particle size 3 μm) • Column temperature: constant temperature in vicinity of 40° C. • Flow rate: 1.0 mL/min • Mobile phase:
Solution B: CH3CN:H2O:HClO4=900:100:1 (v/v/v) • Gradient conditions […]
• Injection amount: 10 μL • Detection: ultraviolet absorbance photometer (wavelength: 252 nm) • Temperature of auto sampler: constant temperature in vicinity of 10° C. 4. Powder X-ray Diffraction […]
Measurement of Water Content

[3] = Test for measuring dissolution rate (rotating disk method); assay type: physicochemical; conditions: 2nd fluid pH 6.8, 37° C., 50 rpm
Method: The dissolution rates of the following crystals were measured under the conditions described below by the rotating disk method (see, J. H. Woods et al., J. Pharm. Soc., 54, 1068 (1955)): a crystalline form of the free carboxamide (obtained in Preparation Example 1), a crystalline form of the hydrochloride of the carboxamide (obtained in Example 1), a crystalline form of the hydrobromide of the carboxamide (obtained in Example 2), a crystalline form of the methanesulfonate (hereunder, referred to as “mesylate”) of the carboxamide (Form A) (obtained in Example 5), a crystalline form of the mesylate of the carboxamide (Form C) (obtained in Example 7) and a crystalline form of the ethanesulfonate (hereunder, referred to as “esylate”) (Form β) (obtained in Example 12). The dissolution rates were calculated based on a range in which linearity was maintained in the relation between concentration and time at the initial stage of dissolution.
(Rotating Disk Method Conditions)
• Solvent: “2nd fluid” (pH 6.8, 500 mL) as described in Japanese Pharmacopoeia 14th Edition, General Tests (disintegration test) • Temperature: 37° C. • Disk rotation speed: 50 rpm • Area of powder contacting with solvent on disk: 1 cm^2 • Sampling amount: approx. 1 mL (HPLC Conditions) • Column: Cadenza CD-18 (Imtakt Corporation; inner diameter 4.6 mm, Column length 100 mm, particle size 3 μm) • Column temperature: 40° C. • Flow rate: 1.0 mL/min • Mobile phase:
Concentration of solution B: 20% • Injection amount: 100 μL • Detection: ultraviolet absorbance photometer (wavelength: 252 nm) • Temperature of auto sampler: 25° C. [Results]

[4] = Study of pharmacokinetics in beagle dogs; assay type: in vivo; conditions: mean ± standard error
Method: A crystalline form of the free from of the carboxamide (obtained in Preparation Example 1), a crystalline form of the hydrobromide of the carboxamide (obtained in Example 2) and a crystalline form of the mesylate of the carboxamide (Form A) (obtained in Example 5) were grounded in a mortar, encapsulated in a gelatin capsule, and then administered orally to beagle dogs (n=3). After administration, 10 mL of water was further administered orally. The dose was set such that it was equivalent to 3 mg/kg as a free form, and the beagle dogs were fasted from the day before administration, and fed again 8 hours after the administration.
To calculate bioavailability (BA), a test was conducted using a single intravenous administration. More specifically, a crystalline form of the free from of the carboxamide was dissolved in a solution containing 10% dimethyl sulfoxide, 50% polyethylene glycol 400 and 40% 0.1 M aqueous solution of hydrochloric acid and administered intravenously through cephalic vein of the foreleg.
The plasma concentration of the carboxamide was measured by HPLC-UV method after sampling blood from cephalic vein of the foreleg. Based on the concentration, pharmacokinetic parameters were calculated for each individual by the moment method. Further, based on the calculated parameters, the mean value and standard error thereof were calculated.

[5] = a-1: 25° C., relative humidity 75%, 1 week
[6] = b-1: 25° C., relative humidity 93%, 1 week
[7] = a-2: −20° C. (well closed), 2 weeks
[8] = b-2: 25° C., light irradiation 1000 lx, shading with aluminum foil, well closed, 2 weeks
[9] = c-2: 25° C., light irradiation 1000 lx, well closed, 2 weeks
[10] = d-2: 40° C., relative humidity 75%, 2 weeks
[11] = e-2: 60° C., 2 weeks (well closed; slightly open for Form I)
[12] = solid stability test, initial, HPLC relative area
[13] = beagle dogs n=3, oral, gelatin capsule, 3 mg/kg as free form, fasted

| Structure (SMILES) | change in appearance and crystal transition ([1]; 1 week) | change of water content ([1]; 1 week) | water content [1, 5] | water content [1, 6] | water content ([1]; hygroscopicity test, initial) | total impurity [2, 7] | water content [2, 7] | total impurity [2, 8] | water content [2, 8] | total impurity [2, 9] | water content [2, 9] | total impurity [2, 10] | water content [2, 10] | total impurity [2, 11] | water content [2, 11] | water content ([2]; solid stability test, initial) | total impurity [2, 12] | dissolution rate [3] | hygroscopicity ([1]; 1 week) | changes in water content and appearance, crystal transition ([2]; solid stability test, 2 weeks) | further results |
| --- | --- | --- | --- | --- | --- | --- | --- | --- | --- | --- | --- | --- | --- | --- | --- | --- | --- | --- | --- | --- | --- |
| CC(=O)O.COc1cc2nccc(Oc3ccc(NC(=O)NC4CC4)c(Cl)c3)c2cc1C(N)=O.CS(=O)(=O)O [Acetic Acid Solvate of the Methanesulfonate of 4-(3-chloro-4-(cyclopropylaminocarbonyl)aminophenoxy)-7-methoxy-6-quinolinecarboxamide] | transition to a crystalline form of the mesylate (Form C) | a decrease in water content was observed | 0.6% | 0.8% | 2.9% | 0.67% | 3.1% | 0.66% | 3.1% | 0.87% | 2.9% | 0.61% | 0.9% | 0.84% | 0.3% | 2.9% | 0.62% |  |  |  | crystal transition ([2]; 40° C. and relative humidity of 75%, 2 weeks): transition to a crystalline form of the mesylate (Form C); crystal transition ([2]; 60° C. in a slightly opened container, 2 weeks): transition to a crystalline form of the mesylate (Form B); crystal transition, changes in total impurity amount, water content and appearance ([2]; stored in a well closed container, 2 weeks): neither crystal transition nor remarkable changes in total impurity amount, water content and appearance were observed |
| Br.COc1cc2nccc(Oc3ccc(NC(=O)NC4CC4)c(Cl)c3)c2cc1C(N)=O [hydrobromide, Hydrobromide of 4-(3-chloro-4-(cyclopropylaminocarbonyl)aminophenoxy)-7-methoxy-6-quinolinecarboxamide] |  |  |  |  |  |  |  |  |  |  |  |  |  |  |  |  |  | 8.7 μg/min/cm^2 |  |  | BA ([4]; beagle dogs n=3, oral 3 mg/kg as free form vs single intravenous administration of free form): 73.5 ± 2.3%; AUC0-24hr [4, 13]: 4800 ± 200 ng·h/mL; Maximum plasma concentration (Cmax) [4, 13]: 480.4 ± 31.4 ng/mL; plasma concentration after 24 hours (C24hr) [4, 13]: 100.5 ± 81.7 ng/mL; time to reach maximum plasma concentration (Tmax) [4, 13]: 2.67 ± 0.7 h |
| CCS(=O)(=O)O.COc1cc2nccc(Oc3ccc(NC(=O)NC4CC4)c(Cl)c3)c2cc1C(N)=O [esylate (Form β), Ethanesulfonate of 4-(3-chloro-4-(cyclopropylaminocarbonyl)aminophenoxy)-7-methoxy-6-quinolinecarboxamide] | Neither remarkable change in appearance nor crystal transition was observed | did not change remarkably | 1.7% | 1.4% | 1.7% | 0.48% | 2.0% | 0.46% | 2.5% | 0.49% | 2.1% | 0.48% | 2.0% | 0.51% | 2.2% | 1.7% | 0.55% | 18.5 μg/min/cm^2 | not observed | neither remarkable changes in water content and appearance nor crystal transition was observed | crystal form [1, 5]: β; crystal form [1, 6]: β; crystal form ([1]; hygroscopicity test, initial): β; crystal form [2, 7]: β; crystal form [2, 8]: β; crystal form [2, 9]: β; crystal form [2, 10]: β; crystal form [2, 11]: β; crystal form ([2]; solid stability test, initial, powder X-ray diffraction): β |
| COc1cc2nccc(Oc3ccc(NC(=O)NC4CC4)c(Cl)c3)c2cc1C(N)=O.CS(=O)(=O)O [mesylate (Form C), Methanesulfonate of 4-(3-chloro-4-(cyclopropylaminocarbonyl)aminophenoxy)-7-methoxy-6-quinolinecarboxamide] | Neither remarkable change in appearance nor crystal transition was observed | did not change remarkably | 0.6% | 0.7% | 0.7% | 2.10% | 0.7% | 2.09% | 0.8% | 2.22% | 0.7% | 2.06% | 0.6% | 2.18% | 0.5% | 0.7% | 2.11% | 15.5 μg/min/cm^2 | not observed | neither remarkable changes in water content and appearance nor crystal transition was observed |  |
| COc1cc2nccc(Oc3ccc(NC(=O)NC4CC4)c(Cl)c3)c2cc1C(N)=O.Cl [hydrochloride, Hydrochloride of 4-(3-chloro-4-(cyclopropylaminocarbonyl)aminophenoxy)-7-methoxy-6-quinolinecarboxamide] |  |  |  |  |  |  |  |  |  |  |  |  |  |  |  |  |  | 4.7 μg/min/cm^2 |  |  |  |
